# Source: patent publication US9295673B2, “Combination of mTOR inhibitors and P13-kinase inhibitors, and uses thereof” (Intellikine LLC, priority 2011, dated 2016)
# System: NRDG1 phosphorylation
# Experiment: Western blot of NRDG1 phosphorylation
# Format: cell-based
# Details: western blot (FIG. 5B)
row,SMILES,mTORC1-dependent NRDG1 phosphorylation
1,CC(C)n1nc(-c2ccc3oc(N)nc3c2)c2c(N)ncnc21 [Compound B],sensitivity

# System: Akt, S6, 4EBP phosphorylation
# Experiment: Western blot of PI3K pathway phosphorylation (Akt, S6, 4EBP)
# Format: cell-based
# Details: PTEN mutant cells; western blot (FIG. 6B)
row,SMILES,"inhibition of Akt, S6, and 4EBP phosphorylation"
1,CC(C)n1nc(-c2ccc3oc(N)nc3c2)c2c(N)ncnc21 [Compound B],selective inhibition

# Same assay, conditions: combined treatment with Compound A and Compound B; western blot (FIG. 3)
row,SMILES,downregulating Akt and S6 phosphorylation
1,CC(C)n1nc(-c2ccc3oc(N)nc3c2)c2c(N)ncnc21 [Compound B],synergistic effect

# Same assay, conditions: western blot (FIG. 7)
row,SMILES,inhibition of Akt phosphorylation at serine 473 over threonine 308
1,CC(C)n1nc(-c2ccc3oc(N)nc3c2)c2c(N)ncnc21 [Compound B],differential inhibition

# Target: PI3K β (Homo sapiens, UniProt P42338)
# Experiment: PI 3-Kinase (human) HTRF assay, PI3K β
# Details: not given
# Chain of PI3K β (P42338 whole entry): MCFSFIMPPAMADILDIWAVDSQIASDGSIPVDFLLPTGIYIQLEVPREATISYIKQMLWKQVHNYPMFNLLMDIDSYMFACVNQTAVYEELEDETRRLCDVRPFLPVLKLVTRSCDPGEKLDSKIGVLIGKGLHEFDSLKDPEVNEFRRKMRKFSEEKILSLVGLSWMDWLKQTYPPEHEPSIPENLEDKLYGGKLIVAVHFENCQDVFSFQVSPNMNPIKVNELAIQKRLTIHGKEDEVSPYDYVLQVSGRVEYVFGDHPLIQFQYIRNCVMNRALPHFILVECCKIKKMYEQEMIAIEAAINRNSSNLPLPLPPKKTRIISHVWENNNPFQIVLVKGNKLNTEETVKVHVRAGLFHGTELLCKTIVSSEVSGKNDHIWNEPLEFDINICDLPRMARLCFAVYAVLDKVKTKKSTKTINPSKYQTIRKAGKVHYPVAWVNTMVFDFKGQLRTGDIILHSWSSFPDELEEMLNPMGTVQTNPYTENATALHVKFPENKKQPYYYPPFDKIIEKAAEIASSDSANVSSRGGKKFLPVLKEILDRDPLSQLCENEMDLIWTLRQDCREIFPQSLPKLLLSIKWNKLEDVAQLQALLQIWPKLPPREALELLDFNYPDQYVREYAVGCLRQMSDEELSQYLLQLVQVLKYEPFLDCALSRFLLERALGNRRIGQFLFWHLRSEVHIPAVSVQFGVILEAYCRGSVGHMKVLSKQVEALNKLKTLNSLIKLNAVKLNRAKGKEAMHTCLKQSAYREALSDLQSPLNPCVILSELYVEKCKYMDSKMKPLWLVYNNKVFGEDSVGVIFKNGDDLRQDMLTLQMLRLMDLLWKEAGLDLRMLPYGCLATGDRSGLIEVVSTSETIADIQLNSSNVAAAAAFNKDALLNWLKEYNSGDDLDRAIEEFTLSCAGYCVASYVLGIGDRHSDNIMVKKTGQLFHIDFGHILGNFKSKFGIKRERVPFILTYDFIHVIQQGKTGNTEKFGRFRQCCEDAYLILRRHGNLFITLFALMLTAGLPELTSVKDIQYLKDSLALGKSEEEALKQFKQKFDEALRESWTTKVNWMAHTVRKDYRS
# Chain of PI3K β (P27986 whole entry partner): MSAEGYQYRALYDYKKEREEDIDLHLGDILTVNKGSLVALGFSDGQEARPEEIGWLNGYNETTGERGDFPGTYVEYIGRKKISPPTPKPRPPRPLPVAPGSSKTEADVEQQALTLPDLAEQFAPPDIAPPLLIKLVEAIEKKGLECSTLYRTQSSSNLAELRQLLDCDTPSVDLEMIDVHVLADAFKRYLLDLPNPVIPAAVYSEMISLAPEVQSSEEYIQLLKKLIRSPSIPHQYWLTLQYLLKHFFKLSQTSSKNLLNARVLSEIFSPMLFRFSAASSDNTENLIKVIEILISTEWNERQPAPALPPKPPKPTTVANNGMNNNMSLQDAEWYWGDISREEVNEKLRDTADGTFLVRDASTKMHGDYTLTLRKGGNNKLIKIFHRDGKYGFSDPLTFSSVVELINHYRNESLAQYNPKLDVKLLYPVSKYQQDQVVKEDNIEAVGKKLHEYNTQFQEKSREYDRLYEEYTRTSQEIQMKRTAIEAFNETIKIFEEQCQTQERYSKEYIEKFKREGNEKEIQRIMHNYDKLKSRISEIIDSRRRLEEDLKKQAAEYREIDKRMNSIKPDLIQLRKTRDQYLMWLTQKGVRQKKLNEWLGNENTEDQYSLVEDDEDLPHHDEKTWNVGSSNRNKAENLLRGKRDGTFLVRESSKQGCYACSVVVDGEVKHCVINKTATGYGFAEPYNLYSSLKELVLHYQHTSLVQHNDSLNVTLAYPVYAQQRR
row,SMILES,IC50 [nM]
1,C=Cc1oc(NC(C)=O)nc1/C=C/c1nn(C)c2ncnc(N)c12 [Compound 2],> 10000

# Same assay, conditions: read-out: PI3K β IC50; Table 2
row,SMILES,IC50 [nM]
1,CC(C)N1CCC(n2nc(-c3cc4cccc(O)c4[nH]3)c3c(N)ncnc32)CC1 [Compound 64],> 500
2,Nc1ncnc2c1c(-c1cc3cccc(O)c3[nH]1)nn2C1CCN(C(=O)C2CC2)CC1 [Compound 41],> 500
3,CN1CCN(C2CC(n3nc(-c4cc5cc(O)ccc5[nH]4)c4c(N)ncnc43)C2)CC1 (stereo not drawn) [Compound 52],> 500
4,CC(=O)N1CCC(n2nc(-c3cc4cc(O)cc(Cl)c4[nH]3)c3c(N)ncnc32)CC1 [Compound 70],> 500
5,CC(=O)N1CCC(n2nc(-c3cc4c(Cl)ccc(O)c4[nH]3)c3c(N)ncnc32)CC1 [Compound 69],> 500
6,Nc1ncnc2c1c(-c1cc3cc(O)cc(Cl)c3[nH]1)nn2C1CCOCC1 [Compound 68],> 500
7,CC(C)n1nc(-c2cc3cccc(Cl)c3[nH]2)c2c(N)ncnc21 [Compound 50],> 500
8,CC(C)N1CCC(n2nc(-c3cc4c(Cl)ccc(O)c4[nH]3)c3c(N)ncnc32)CC1 [Compound 71],> 500

# Target: T1, mTOR (Homo sapiens, UniProt P42345)
# T1 construct: purchased Invitrogen
# Experiment: mTOR kinase inhibition assay (radiometric or LanthaScreen TR-FRET)
# Format: biochemical
# Details: Table 1; read-out: mTOR IC50
# Method: The compounds described herein can be tested against recombinant mTOR (Invitrogen) in an assay containing 50 mM HEPES, pH 7.5, 1 mM EGTA, 10 mM MgCl2, 2.5 mM, 0.01% Tween, 10 μM ATP (2.5 μCi of μ-32P-ATP), and 3 mg/mL BSA. Rat recombinant PHAS-1/4EBP1 (Calbiochem; 2 mg/mL) is used as a substrate. Reactions are terminated by spotting onto nitrocellulose, which is washed with 1M NaC1/1% phosphoric acid (approximately 6 times, 5-10 minutes each). Sheets are dried and the transferred radioactivity quantitated by phosphorimaging.
# For instance, one can use Invitrogen's LanthaScreen™ Kinase assay to test the inhibitors of mTOR disclosed herein. This assay is a time resolved FRET platform that measures the phosphorylation of GFP labeled 4EBP1 by mTOR kinase. The kinase reaction is performed in a white 384 well microtitre plate. The total reaction volume is 20 ul per well and the reaction buffer composition is 50 mM HEPES pH7.5, 0.01% Polysorbate 20, 1 mM EGTA, 10 mM MnCl2, and 2 mM DTT. In the first step, each well receives 2 ul of test compound in 20% dimethylsulphoxide resulting in a 2% DMSO final concentration. […] The plate is sealed and incubated for 1 hour at room temperature. […] The plate is sealed, incubated for 1 hour at room temperature, and then read on a plate reader set up for LanthaScreen™ TR-FRET. Data is analyzed and IC50s are generated using GraphPad Prism 5.
# T1 sequence (P42345 1360-2549 limits assumed): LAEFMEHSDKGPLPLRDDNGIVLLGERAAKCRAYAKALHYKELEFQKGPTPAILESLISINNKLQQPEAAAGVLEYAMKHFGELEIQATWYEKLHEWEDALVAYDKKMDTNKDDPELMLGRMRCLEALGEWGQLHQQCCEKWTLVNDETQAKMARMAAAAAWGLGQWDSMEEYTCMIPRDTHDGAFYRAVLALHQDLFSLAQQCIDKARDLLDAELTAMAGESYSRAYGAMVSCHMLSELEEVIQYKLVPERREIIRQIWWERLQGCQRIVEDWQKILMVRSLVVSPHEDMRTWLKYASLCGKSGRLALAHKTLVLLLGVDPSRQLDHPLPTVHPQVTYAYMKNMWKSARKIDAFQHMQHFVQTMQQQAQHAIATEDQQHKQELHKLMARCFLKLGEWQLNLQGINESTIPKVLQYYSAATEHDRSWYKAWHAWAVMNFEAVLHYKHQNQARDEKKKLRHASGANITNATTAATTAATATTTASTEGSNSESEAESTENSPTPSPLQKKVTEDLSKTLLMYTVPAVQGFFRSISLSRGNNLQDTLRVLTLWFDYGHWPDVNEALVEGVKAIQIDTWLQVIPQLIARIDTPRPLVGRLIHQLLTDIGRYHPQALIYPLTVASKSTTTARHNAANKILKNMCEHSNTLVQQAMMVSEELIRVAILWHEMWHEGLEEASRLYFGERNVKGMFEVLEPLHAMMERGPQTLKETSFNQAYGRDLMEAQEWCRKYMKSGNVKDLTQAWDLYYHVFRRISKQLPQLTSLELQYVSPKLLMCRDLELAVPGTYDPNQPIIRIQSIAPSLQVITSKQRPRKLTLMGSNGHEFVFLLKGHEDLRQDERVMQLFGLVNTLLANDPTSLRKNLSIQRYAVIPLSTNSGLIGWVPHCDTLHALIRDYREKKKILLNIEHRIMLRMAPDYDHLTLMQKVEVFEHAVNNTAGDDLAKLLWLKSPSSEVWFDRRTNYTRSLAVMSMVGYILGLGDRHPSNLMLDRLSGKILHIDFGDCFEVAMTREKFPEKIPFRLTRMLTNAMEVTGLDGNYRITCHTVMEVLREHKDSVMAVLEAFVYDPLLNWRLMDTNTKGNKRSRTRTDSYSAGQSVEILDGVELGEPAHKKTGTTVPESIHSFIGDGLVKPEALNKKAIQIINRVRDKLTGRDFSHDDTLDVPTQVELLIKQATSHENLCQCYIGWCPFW
row,SMILES,IC50 [nM]
1,C=Cc1oc(NC(C)=O)nc1/C=C/c1nn(C)c2ncnc(N)c12 [Compound 2],< 100

# Same assay, conditions: Table 2; read-out: mTORC IC50
row,SMILES,IC50 [nM]
1,CC(C)N1CCC(n2nc(-c3cc4cccc(O)c4[nH]3)c3c(N)ncnc32)CC1 [Compound 64],< 25
2,Nc1ncnc2c1c(-c1cc3cccc(O)c3[nH]1)nn2C1CCN(C(=O)C2CC2)CC1 [Compound 41],< 10
3,CN1CCN(C2CC(n3nc(-c4cc5cc(O)ccc5[nH]4)c4c(N)ncnc43)C2)CC1 (stereo not drawn) [Compound 52],< 500
4,CC(=O)N1CCC(n2nc(-c3cc4cc(O)cc(Cl)c4[nH]3)c3c(N)ncnc32)CC1 [Compound 70],< 5
5,CC(=O)N1CCC(n2nc(-c3cc4c(Cl)ccc(O)c4[nH]3)c3c(N)ncnc32)CC1 [Compound 69],< 5
6,Nc1ncnc2c1c(-c1cc3cc(O)cc(Cl)c3[nH]1)nn2C1CCOCC1 [Compound 68],< 5
7,CC(C)n1nc(-c2cc3cccc(Cl)c3[nH]2)c2c(N)ncnc21 [Compound 50],< 50
8,CC(C)N1CCC(n2nc(-c3cc4c(Cl)ccc(O)c4[nH]3)c3c(N)ncnc32)CC1 [Compound 71],< 100

# Target: PI3K δ (Homo sapiens, UniProt O00329)
# Experiment: PI 3-Kinase (human) HTRF assay, PI3K δ
# Details: not given
row,SMILES,IC50 [nM]
1,C=Cc1oc(NC(C)=O)nc1/C=C/c1nn(C)c2ncnc(N)c12 [Compound 2],< 1000

# Same assay, conditions: read-out: PI3K δ IC50
row,SMILES,IC50 [nM]
1,CN1CCN(C2CC(n3nc(-c4cc5cc(O)ccc5[nH]4)c4c(N)ncnc43)C2)CC1 (stereo not drawn) [Compound 52],100 to 500
2,CC(=O)N1CCC(n2nc(-c3cc4c(Cl)ccc(O)c4[nH]3)c3c(N)ncnc32)CC1 [Compound 69],100 to 500
3,Nc1ncnc2c1c(-c1cc3cc(O)cc(Cl)c3[nH]1)nn2C1CCOCC1 [Compound 68],10 to 25
4,CC(C)n1nc(-c2cc3cccc(Cl)c3[nH]2)c2c(N)ncnc21 [Compound 50],100 to 500
5,CC(C)N1CCC(n2nc(-c3cc4c(Cl)ccc(O)c4[nH]3)c3c(N)ncnc32)CC1 [Compound 71],> 500

# Same assay, conditions: read-out: PI3K δ IC50; Table 2
row,SMILES,IC50 [nM]
1,CC(C)N1CCC(n2nc(-c3cc4cccc(O)c4[nH]3)c3c(N)ncnc32)CC1 [Compound 64],100 to 500
2,Nc1ncnc2c1c(-c1cc3cccc(O)c3[nH]1)nn2C1CCN(C(=O)C2CC2)CC1 [Compound 41],> 500
3,CC(=O)N1CCC(n2nc(-c3cc4cc(O)cc(Cl)c4[nH]3)c3c(N)ncnc32)CC1 [Compound 70],10 to 25

# System: PC3
# Experiment: PC3 proliferation (Alamar Blue)
# Format: cell-based
# Details: Homo sapiens, PC-3; Table 1
# Method: For instance, an in vitro cellular proliferation assay can be performed to measure the metabolic activity of live cells. The assay is performed in a 96 well microtiter plate using Alamar Blue reduction. […] A compound disclosed herein is diluted in Tumor Cell Media and added in a 10 ul volume. […] A volume of 10 uL of Alamar Blue reagent is added to each well and plates are incubated for 3 hours at 37 C and 5% CO2.
row,SMILES,EC50 [nM]
1,C=Cc1oc(NC(C)=O)nc1/C=C/c1nn(C)c2ncnc(N)c12 [Compound 2],< 1000

# Target: PI3K α (Homo sapiens, UniProt P42336)
# Experiment: PI 3-Kinase (human) HTRF assay, PI3K α
# Details: not given
# Chain of PI3K α (P42336 whole entry): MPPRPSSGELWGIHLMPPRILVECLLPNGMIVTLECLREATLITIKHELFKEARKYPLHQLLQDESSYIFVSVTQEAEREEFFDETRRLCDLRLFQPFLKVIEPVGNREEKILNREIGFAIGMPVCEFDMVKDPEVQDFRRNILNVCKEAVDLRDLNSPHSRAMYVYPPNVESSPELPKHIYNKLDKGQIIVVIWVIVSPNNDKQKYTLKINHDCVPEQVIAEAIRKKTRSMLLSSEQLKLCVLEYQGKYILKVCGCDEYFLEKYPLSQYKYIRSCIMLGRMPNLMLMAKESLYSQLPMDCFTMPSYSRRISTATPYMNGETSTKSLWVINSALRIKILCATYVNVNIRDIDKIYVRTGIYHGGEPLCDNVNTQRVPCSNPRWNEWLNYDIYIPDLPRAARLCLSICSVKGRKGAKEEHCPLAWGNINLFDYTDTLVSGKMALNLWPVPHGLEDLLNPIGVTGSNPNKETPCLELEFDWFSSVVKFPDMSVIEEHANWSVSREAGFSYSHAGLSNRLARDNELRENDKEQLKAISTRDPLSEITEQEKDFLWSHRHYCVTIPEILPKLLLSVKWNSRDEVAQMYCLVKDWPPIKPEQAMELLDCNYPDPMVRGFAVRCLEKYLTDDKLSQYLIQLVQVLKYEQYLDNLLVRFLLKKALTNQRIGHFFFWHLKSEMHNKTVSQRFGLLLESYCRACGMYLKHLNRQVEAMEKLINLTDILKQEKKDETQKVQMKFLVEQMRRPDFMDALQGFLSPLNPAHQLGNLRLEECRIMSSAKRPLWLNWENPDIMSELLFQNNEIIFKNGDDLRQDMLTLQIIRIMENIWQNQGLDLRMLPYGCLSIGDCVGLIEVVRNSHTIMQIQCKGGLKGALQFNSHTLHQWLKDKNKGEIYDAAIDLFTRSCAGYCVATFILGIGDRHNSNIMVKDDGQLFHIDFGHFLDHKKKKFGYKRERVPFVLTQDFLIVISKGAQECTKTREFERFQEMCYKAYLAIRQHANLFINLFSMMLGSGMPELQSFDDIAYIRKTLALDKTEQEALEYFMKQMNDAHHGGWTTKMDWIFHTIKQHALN
# Chain of PI3K α (P27986 whole entry partner): as the sequence (P27986 whole entry partner) above
row,SMILES,IC50 [nM]
1,C=Cc1oc(NC(C)=O)nc1/C=C/c1nn(C)c2ncnc(N)c12 [Compound 2],< 10000

# Same assay, conditions: read-out: PI3K α IC50
row,SMILES,IC50 [nM]
1,CN1CCN(C2CC(n3nc(-c4cc5cc(O)ccc5[nH]4)c4c(N)ncnc43)C2)CC1 (stereo not drawn) [Compound 52],> 500

# Same assay, conditions: read-out: PI3K α IC50; Table 2
row,SMILES,IC50 [nM]
1,CC(C)N1CCC(n2nc(-c3cc4cccc(O)c4[nH]3)c3c(N)ncnc32)CC1 [Compound 64],> 500
2,Nc1ncnc2c1c(-c1cc3cccc(O)c3[nH]1)nn2C1CCN(C(=O)C2CC2)CC1 [Compound 41],> 500
3,CC(=O)N1CCC(n2nc(-c3cc4cc(O)cc(Cl)c4[nH]3)c3c(N)ncnc32)CC1 [Compound 70],100 to 500
4,CC(=O)N1CCC(n2nc(-c3cc4c(Cl)ccc(O)c4[nH]3)c3c(N)ncnc32)CC1 [Compound 69],> 500
5,Nc1ncnc2c1c(-c1cc3cc(O)cc(Cl)c3[nH]1)nn2C1CCOCC1 [Compound 68],100 to 500
6,CC(C)n1nc(-c2cc3cccc(Cl)c3[nH]2)c2c(N)ncnc21 [Compound 50],> 500
7,CC(C)N1CCC(n2nc(-c3cc4c(Cl)ccc(O)c4[nH]3)c3c(N)ncnc32)CC1 [Compound 71],> 500

# System: breast cancer model
# Experiment: Preclinical breast cancer model (tumor weight / volume)
# Format: in vivo
# Details: combined treatment with Compound A and Compound B (FIG. 2)
row,SMILES,tumor weight in a preclinical breast cancer model
1,CC(C)n1nc(-c2ccc3oc(N)nc3c2)c2c(N)ncnc21 [Compound B],synergistic effect

# Target: PI3K γ (Homo sapiens, UniProt P48736)
# Experiment: PI 3-Kinase (human) HTRF assay, PI3K γ
# Details: not given
row,SMILES,IC50 [nM]
1,C=Cc1oc(NC(C)=O)nc1/C=C/c1nn(C)c2ncnc(N)c12 [Compound 2],< 1000

# Same assay, conditions: read-out: PI3K γ IC50
row,SMILES,IC50 [nM]
1,Nc1ncnc2c1c(-c1cc3cccc(O)c3[nH]1)nn2C1CCN(C(=O)C2CC2)CC1 [Compound 41],25 to 50
2,CN1CCN(C2CC(n3nc(-c4cc5cc(O)ccc5[nH]4)c4c(N)ncnc43)C2)CC1 (stereo not drawn) [Compound 52],> 500

# Same assay, conditions: read-out: PI3K γ IC50; Table 2
row,SMILES,IC50 [nM]
1,CC(C)N1CCC(n2nc(-c3cc4cccc(O)c4[nH]3)c3c(N)ncnc32)CC1 [Compound 64],100 to 500
2,CC(=O)N1CCC(n2nc(-c3cc4cc(O)cc(Cl)c4[nH]3)c3c(N)ncnc32)CC1 [Compound 70],50 to 100
3,CC(=O)N1CCC(n2nc(-c3cc4c(Cl)ccc(O)c4[nH]3)c3c(N)ncnc32)CC1 [Compound 69],> 500
4,Nc1ncnc2c1c(-c1cc3cc(O)cc(Cl)c3[nH]1)nn2C1CCOCC1 [Compound 68],25 to 50
5,CC(C)n1nc(-c2cc3cccc(Cl)c3[nH]2)c2c(N)ncnc21 [Compound 50],100 to 500
6,CC(C)N1CCC(n2nc(-c3cc4c(Cl)ccc(O)c4[nH]3)c3c(N)ncnc32)CC1 [Compound 71],> 500

# System: 786-O human kidney carcinoma tumors
# Experiment: In vivo efficacy in 786-O xenograft model
# Parameters: species or system nude mice
# Details: oral, FIG. 6
row,SMILES,inhibition of kinase activity (downstream markers) and tumor growth
1,CC(C)n1nc(-c2ccc3oc(N)nc3c2)c2c(N)ncnc21 [Compound B],effective at inhibiting kinase activity

# System: mTORC1 and mTORC2 in 786-O cells
# Experiment: Western blot of pNDRG1 in 786-O cells (mTOR pathways)
# Format: cell-based, human
# Details: FIG. 5
# Text: Cells were subsequently lysed and lysates were subjected to SDS-PAGE followed by Western blot analysis to detect the downstream pathway marker, pNDRG1.
row,SMILES,effects on mTORC1 and mTORC2 (pNDRG1)
1,CC(C)n1nc(-c2ccc3oc(N)nc3c2)c2c(N)ncnc21 [Compound B],differential effects on mTORC1 and mTORC2

# System: pAKT(S473), pAKT(T308) in PC3 cells
# Experiment: Western blot of Akt phosphorylation (pAKT) in PC3 cells
# Format: cell-based
# Details: PC3 model, FIG. 7
# Method: Cells comprising one or more mutations in PI3Kα, including but not limited to breast cancer cells (e.g., MDA-MB-361, T47D, SKOV-3), and cells comprising one or more mutations in PTEN including but not limited to prostate cancer cells (e.g., PC3), are typically grown in cell growth media such as DMEM supplemented with fetal bovine serum and/or antibiotics, and grown to confluency. Cells are then treated with various concentrations of test compound for about 2 hours and subsequently lysed in cell lysis buffer. Lysates are subjected to SDS-PAGE followed by Western blot analysis to detect downstream signaling markers, including but not limited to pAKT(S473), pAKT(T308), pS6, and p4E-BP1.
row,SMILES,"inhibition of Akt phosphorylation, serine 473 versus threonine 308"
1,CC(C)n1nc(-c2ccc3oc(N)nc3c2)c2c(N)ncnc21 [Compound B],differential inhibition of Akt phosphorylation at serine 473 over threonine 308
